The target in one test is T1, SMARCA2 (Homo sapiens, UniProt P51531).
T1 construct: SMARCA2-HiBiT knock-in Hela monoclonal cell (CS302366); host or cells: HeLa monoclonal cells with heterozygous HiBiT knock-in at the endogenous SMARCA2 locus
The experiment in a line: SMARCA2 HiBiT degradation assay in HeLa cells. The test is classed as cell-based. The settings on record: 18 hours, highest concentration 10 μM. The method in brief: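 HeLa cells carrying a heterozygous C-terminal HiBiT knock-in on SMARCA2 were seeded at 2500 cells/well. They were treated with 3-fold dilution series, top concentration 10 μM, for 18 h at 37 °C. Remaining SMARCA2-HiBiT was measured by Nano-Glo HiBiT lytic luminescence after 30-60 min at RT, followed by curve fitting.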

The target of another test is T2, SMARCA4 (Homo sapiens, UniProt P51532).
T2 construct: SMARCA4-HiBiT knock-in Hela monoclonal cell (CS3023226); host or cells: HeLa monoclonal cells with heterozygous HiBiT knock-in at the endogenous SMARCA4 locus
The experiment in a line: SMARCA4 HiBiT degradation assay in HeLa cells. Particulars: 18 hours, highest concentration 10 μM. It is filed as cell-based. The method in brief:
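HeLa monoclonal cells with HiBiT knocked into SMARCA4 were seeded at 2500 cells/well, dosed with compound and incubated 18 hours at 37° C. HiBiT signal reported remaining SMARCA4 protein, and values came from curve fitting.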
Background: HiBiT is a short tag that completes a luciferase, so light tracks the accessible tagged protein.

Test [1] relates to SMARCA4 mutated cancer cells. Particulars: Vangamudi et al. Cancer Res 2015; cited from earlier work.

Usually DC50 stands for the concentration at which degradation of the target reaches its halfway point. A lower DC50 goes with a more potent degrader. In general, Dmax refers to the largest share of the target that was removed. A low value points to a partial loss of target.

T2 sequence (P51532 whole entry): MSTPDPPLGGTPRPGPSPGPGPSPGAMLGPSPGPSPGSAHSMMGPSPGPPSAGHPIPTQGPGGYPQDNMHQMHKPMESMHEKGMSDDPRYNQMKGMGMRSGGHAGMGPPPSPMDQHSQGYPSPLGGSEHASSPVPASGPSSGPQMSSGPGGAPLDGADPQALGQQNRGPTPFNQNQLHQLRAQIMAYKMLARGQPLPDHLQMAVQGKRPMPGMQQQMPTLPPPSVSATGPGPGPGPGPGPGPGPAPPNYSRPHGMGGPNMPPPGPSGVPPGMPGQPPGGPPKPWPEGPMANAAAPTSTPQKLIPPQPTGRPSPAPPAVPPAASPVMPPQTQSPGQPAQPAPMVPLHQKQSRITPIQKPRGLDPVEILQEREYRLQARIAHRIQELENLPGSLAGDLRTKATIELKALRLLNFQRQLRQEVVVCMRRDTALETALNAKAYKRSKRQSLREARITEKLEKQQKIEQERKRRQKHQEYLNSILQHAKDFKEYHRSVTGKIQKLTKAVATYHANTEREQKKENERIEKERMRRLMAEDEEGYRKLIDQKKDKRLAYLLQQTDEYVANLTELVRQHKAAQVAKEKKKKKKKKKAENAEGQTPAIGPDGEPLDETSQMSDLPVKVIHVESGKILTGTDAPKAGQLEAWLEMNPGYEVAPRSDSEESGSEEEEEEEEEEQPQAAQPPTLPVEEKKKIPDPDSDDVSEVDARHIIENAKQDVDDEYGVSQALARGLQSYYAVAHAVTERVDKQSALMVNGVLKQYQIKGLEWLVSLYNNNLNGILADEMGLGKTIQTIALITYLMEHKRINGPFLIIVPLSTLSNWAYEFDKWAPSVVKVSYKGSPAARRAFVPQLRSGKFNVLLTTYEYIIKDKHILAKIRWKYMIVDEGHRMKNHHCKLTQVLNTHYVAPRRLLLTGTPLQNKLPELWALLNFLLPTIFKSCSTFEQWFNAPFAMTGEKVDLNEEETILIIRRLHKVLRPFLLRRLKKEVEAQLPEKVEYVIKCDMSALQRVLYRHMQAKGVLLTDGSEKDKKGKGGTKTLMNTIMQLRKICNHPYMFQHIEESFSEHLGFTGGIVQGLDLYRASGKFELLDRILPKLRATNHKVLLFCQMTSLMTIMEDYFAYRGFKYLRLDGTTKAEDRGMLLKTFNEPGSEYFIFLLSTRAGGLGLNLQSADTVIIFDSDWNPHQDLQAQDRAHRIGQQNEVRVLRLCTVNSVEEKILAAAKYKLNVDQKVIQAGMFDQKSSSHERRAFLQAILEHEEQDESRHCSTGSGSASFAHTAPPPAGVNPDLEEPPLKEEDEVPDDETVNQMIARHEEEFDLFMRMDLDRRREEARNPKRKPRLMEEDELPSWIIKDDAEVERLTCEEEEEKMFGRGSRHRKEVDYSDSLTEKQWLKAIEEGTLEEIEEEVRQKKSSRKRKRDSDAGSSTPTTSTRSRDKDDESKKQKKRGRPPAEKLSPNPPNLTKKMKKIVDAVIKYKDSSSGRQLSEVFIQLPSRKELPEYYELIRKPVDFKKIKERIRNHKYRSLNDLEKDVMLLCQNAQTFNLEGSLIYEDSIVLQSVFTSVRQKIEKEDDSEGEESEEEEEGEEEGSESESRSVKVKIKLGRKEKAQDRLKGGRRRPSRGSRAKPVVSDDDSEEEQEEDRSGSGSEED
T1 sequence (P51531 whole entry): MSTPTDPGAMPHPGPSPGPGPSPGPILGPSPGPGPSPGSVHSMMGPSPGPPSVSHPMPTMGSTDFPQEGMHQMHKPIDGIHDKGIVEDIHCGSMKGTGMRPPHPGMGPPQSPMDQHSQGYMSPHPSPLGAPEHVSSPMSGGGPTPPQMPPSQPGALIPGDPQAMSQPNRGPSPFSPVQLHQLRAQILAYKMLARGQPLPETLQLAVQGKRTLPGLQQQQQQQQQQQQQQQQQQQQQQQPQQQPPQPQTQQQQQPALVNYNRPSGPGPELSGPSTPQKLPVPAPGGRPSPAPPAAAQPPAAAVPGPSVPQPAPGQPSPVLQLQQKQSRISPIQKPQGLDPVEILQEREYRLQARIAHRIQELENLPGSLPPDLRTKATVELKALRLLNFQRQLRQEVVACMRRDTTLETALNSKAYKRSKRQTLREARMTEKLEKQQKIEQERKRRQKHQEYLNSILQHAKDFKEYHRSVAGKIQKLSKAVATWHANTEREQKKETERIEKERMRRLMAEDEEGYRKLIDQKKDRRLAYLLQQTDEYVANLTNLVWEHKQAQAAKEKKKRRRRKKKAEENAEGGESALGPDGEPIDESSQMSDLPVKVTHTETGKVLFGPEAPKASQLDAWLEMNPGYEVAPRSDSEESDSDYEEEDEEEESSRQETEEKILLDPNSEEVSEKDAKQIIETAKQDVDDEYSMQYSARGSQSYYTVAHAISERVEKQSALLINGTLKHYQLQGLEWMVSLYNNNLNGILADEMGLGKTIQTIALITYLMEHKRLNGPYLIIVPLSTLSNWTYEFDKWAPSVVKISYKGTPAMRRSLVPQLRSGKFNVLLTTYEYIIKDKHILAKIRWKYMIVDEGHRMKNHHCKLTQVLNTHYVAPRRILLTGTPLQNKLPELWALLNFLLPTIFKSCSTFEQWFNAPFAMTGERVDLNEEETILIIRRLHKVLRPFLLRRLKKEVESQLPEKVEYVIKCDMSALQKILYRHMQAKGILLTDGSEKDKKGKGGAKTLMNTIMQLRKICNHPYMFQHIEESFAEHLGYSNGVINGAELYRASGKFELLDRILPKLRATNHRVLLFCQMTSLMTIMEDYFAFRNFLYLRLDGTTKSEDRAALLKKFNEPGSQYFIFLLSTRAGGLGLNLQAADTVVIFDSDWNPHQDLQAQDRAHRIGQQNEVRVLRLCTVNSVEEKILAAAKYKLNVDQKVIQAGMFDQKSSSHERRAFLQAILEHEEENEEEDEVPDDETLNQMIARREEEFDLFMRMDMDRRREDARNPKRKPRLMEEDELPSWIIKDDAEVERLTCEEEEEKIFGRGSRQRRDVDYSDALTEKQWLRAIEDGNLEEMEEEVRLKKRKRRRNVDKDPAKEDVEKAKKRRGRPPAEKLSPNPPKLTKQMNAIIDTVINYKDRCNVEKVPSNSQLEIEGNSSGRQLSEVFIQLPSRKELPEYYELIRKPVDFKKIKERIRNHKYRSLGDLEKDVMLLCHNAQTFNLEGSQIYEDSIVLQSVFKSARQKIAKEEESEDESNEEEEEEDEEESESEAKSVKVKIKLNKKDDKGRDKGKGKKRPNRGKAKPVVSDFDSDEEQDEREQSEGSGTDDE

Regarding `CC[C@]12CNc3nnc(-c4cccc(C)c4O)cc3N1C[C@H](Oc1cnc(CN3CCC(c4ccc5c(c4)C(=O)N([C@H]4CCC(=O)NC4=O)C5)CC3)c(C)c1)C2` [Example 97, (S)-3-(6-(1-((5-(((6aS,8R)-6a-ethyl-2-(2-hydroxy-3-methylphenyl)-5,6,6a,7,8,9-hexahydropyrrolo[1′,2′:4,5]pyrazino[2,3-c]pyridazin-8-yl)oxy)-3-methylpyridin-2-yl)methyl)piperidin-4-yl)-1-oxoisoindolin-2-yl)piperidine-2,6-dione], at SMARCA2, the DC50 was under 100 nM and the Dmax was over 75%. Further, at SMARCA4, the DC50 is under 100 nM and the Dmax fell in the range of 50 to 75%.
With `CC[C@]12CNc3nnc(-c4cccc(C)c4O)cc3N1C[C@H](Oc1cc(C)c(CN3CCC(c4ccc5c(c4)C(=O)N([C@H]4CCC(=O)NC4=O)C5)CC3)cn1)C2` [Example 98, (S)-3-(6-(1-((6-(((6aS,8R)-6a-ethyl-2-(2-hydroxy-3-methylphenyl)-5,6,6a, 7,8,9-hexahydropyrrolo[1′,2′:4,5]pyrazino[2,3-c]pyridazin-8-yl)oxy)-4-methylpyridin-3-yl)methyl)piperidin-4-yl)-1-oxoisoindolin-2-yl)piperidine-2,6-dione], at SMARCA2, the DC50 is under 100 nM and the Dmax was over 75%. At SMARCA4, this compound had a DC50 of under 100 nM and a Dmax of over 75%.
At SMARCA2, `CC[C@]12CNc3nnc(-c4cccc(Cl)c4O)cc3N1C[C@H](Oc1cnc(CN3CCC(c4ccc5c(c4)C(=O)N([C@H]4CCC(=O)NC4=O)C5)CC3)c(Cl)c1)C2` [Example 99, (S)-3-(6-(1-((3-chloro-5-(((6aS,8R)-2-(3-chloro-2-hydroxyphenyl)-6a-ethyl-5,6,6a,7,8,9-hexahydropyrrolo[1′,2′:4,5]pyrazino[2,3-c]pyridazin-8-yl)oxy)pyridin-2-yl)methyl)piperidin-4-yl)-1-oxoisoindolin-2-yl)piperidine-2,6-dione] came in with a DC50 of under 100 nM and a Dmax of over 75%. Moreover, on SMARCA4, the DC50 is under 100 nM and the Dmax lay within 50 to 75%.
At SMARCA2, `CC[C@@]12CNc3nnc(-c4cccc(Cl)c4O)cc3N1C[C@H](Oc1cc(C)c(CN3CCC(c4ccc5c(c4)C(=O)N([C@H]4CCC(=O)NC4=O)C5)CC3)cn1)C2` [Example 100, (S)-3-(6-(1-((6-(((6aR,8R)-2-(3-chloro-2-hydroxyphenyl)-6a-ethyl-5,6,6a,7,8,9-hexahydropyrrolo[1′,2′:4,5]pyrazino[2,3-c]pyridazin-8-yl)oxy)-4-methylpyridin-3-yl)methyl)piperidin-4-yl)-1-oxoisoindolin-2-yl)piperidine-2,6-dione] gave a DC50 of under 100 nM and a Dmax of over 75%. On SMARCA4, this compound came in with a DC50 of 100 to 1000 nM and a Dmax of under 50%.
For `CC[C@@]12CNc3nnc(-c4cccc(F)c4O)cc3N1C[C@H](Oc1cnc(CN3CCC(c4ccc5c(c4)C(=O)N([C@H]4CCC(=O)NC4=O)C5)CC3)c(F)c1)C2` [Example 101, (S)-3-(6-(1-((5-(((6aR,8R)-6a-ethyl-2-(3-fluoro-2-hydroxyphenyl)-5,6,6a,7,8,9-hexahydropyrrolo[1′,2′:4,5]pyrazino[2,3-c]pyridazin-8-yl)oxy)-3-fluoropyridin-2-yl)methyl)piperidin-4-yl)-1-oxoisoindolin-2-yl)piperidine-2,6-dione] the same measures were under 100 nM, over 75%, 100 to 1000 nM and under 50%.
For `CC[C@@]12CNc3nnc(-c4cccc(F)c4O)cc3N1C[C@H](Oc1nc(C)c(CN3CCC(c4ccc5c(c4)C(=O)N([C@H]4CCC(=O)NC4=O)C5)CC3)c(C)n1)C2` [Example 102, (S)-3-(6-(1-((2-(((6aR,8R)-6a-ethyl-2-(3-fluoro-2-hydroxyphenyl)-5,6,6a,7,8,9-hexahydropyrrolo[1′,2′:4,5]pyrazino[2,3-c]pyridazin-8-yl)oxy)-4,6-dimethylpyrimidin-5-yl)methyl)piperidin-4-yl)-1-oxoisoindolin-2-yl)piperidine-2,6-dione] the same measures were under 100 nM, over 75%, over 1000 nM and under 50%.
Turning to `CC[C@]12CNc3nnc(-c4cccc(F)c4O)cc3N1C[C@H](Oc1cnc(CN3CCC(c4ccc5c(c4)C(=O)N([C@H]4CCC(=O)NC4=O)C5)CC3)cn1)C2` [Example 103, (S)-3-(6-(1-((5-(((6aS,8R)-6a-ethyl-2-(3-fluoro-2-hydroxyphenyl)-5,6,6a,7,8,9-hexahydropyrrolo[1′,2′:4,5]pyrazino[2,3-c]pyridazin-8-yl)oxy)pyrazin-2-yl)methyl)piperidin-4-yl)-1-oxoisoindolin-2-yl)piperidine-2,6-dione], at SMARCA2, the DC50 was under 100 nM and the Dmax is over 75%. On SMARCA4, this compound had a DC50 of under 100 nM and a Dmax of 50 to 75%.
At SMARCA2, `CC[C@]12CNc3nnc(-c4cccc(F)c4O)cc3N1C[C@H](Oc1cnc(CN3CCC(c4ccc5c(c4)C(=O)N([C@H]4CCC(=O)NC4=O)C5)CC3)c(C)c1)C2` [Example 104, (S)-3-(6-(1-((5-(((6aS,8R)-6a-ethyl-2-(3-fluoro-2-hydroxyphenyl)-5,6,6a,7,8,9-hexahydropyrrolo[1′,2′:4,5]pyrazino[2,3-c]pyridazin-8-yl)oxy)-3-methylpyridin-2-yl)methyl)piperidin-4-yl)-1-oxoisoindolin-2-yl)piperidine-2,6-dione] registered a DC50 of under 100 nM and a Dmax of over 75%. In addition, on SMARCA4, the DC50 is under 100 nM and the Dmax lay in the range of 50 to 75%.
With `CC[C@@]12CNc3nnc(-c4cccc(F)c4O)cc3N1C[C@H](Oc1ncc(CN3CCC(c4ccc5c(c4)C(=O)N([C@H]4CCC(=O)NC4=O)C5)CC3)c(C)n1)C2` [Example 105, (S)-3-(6-(1-((2-(((6aR,8R)-6a-ethyl-2-(3-fluoro-2-hydroxyphenyl)-5,6,6a, 7,8,9-hexahydropyrrolo[1′,2′:4,5]pyrazino[2,3-c]pyridazin-8-yl)oxy)-4-methylpyrimidin-5-yl)methyl)piperidin-4-yl)-1-oxoisoindolin-2-yl)piperidine-2,6-dione], the figures for the DC50 at SMARCA2 and on SMARCA4 were under 100 nM and 100 to 1000 nM, respectively. Further, the Dmax was over 75% on SMARCA2 and under 50% at SMARCA4.
For `CC[C@@]12CNc3nnc(-c4cccc(F)c4O)cc3N1C[C@H](Oc1cc(C)c(CN3CCC(c4ccc5c(c4)C(=O)N(C4CCC(=O)NC4=O)C5)CC3)cn1)C2` (stereo partly drawn) [Example 106, 3-(6-(1-((6-(((6aR,8R)-6a-ethyl-2-(3-fluoro-2-hydroxyphenyl)-5,6,6a,7,8,9-hexahydropyrrolo[1′,2′:4,5]pyrazino[2,3-c]pyridazin-8-yl)oxy)-4-methylpyridin-3-yl)methyl)piperidin-4-yl)-1-oxoisoindolin-2-yl)piperidine-2,6-dione] the same measures were under 100 nM, 100 to 1000 nM, over 75% and under 50%.
In the case of `O=C(/C=C/N1C[C@H]2C[C@@H]1CN2c1ccccn1)c1ccccc1O` [PFI-3], the “effects on cell proliferation inhibition” value in test [1] is listed as “none to minor effects”.

These data come from US20240165244A1 (Prelude Therapeutics Incorporated, priority 2022, published 2024).
